Test results as given in article PMC7125515 (Bioorganic & Medicinal Chemistry, 2011).
Entries after “also recorded” stand apart in the source; their conditions may differ.

Legend:
[1] = test system: herpes- and poxviruses; test: organism not typed; format: cell-based; conditions: for Selectivity index (ratio CC50:EC50), HCMV / Selectivity index (ratio CC50:EC50), HSV / Selectivity index (ratio CC50:EC50), VZV: CC50 in HEL; for Selectivity index (ratio CC50:EC50), VZV: different VZV strains; for Activity against herpes- and poxviruses (in words): DNA viruses: VACV, HSV-1, HSV-2, TK- HSV-1, VZV; for Selectivity index (ratio CC50:EC50), HCMV / Activity against herpes- and poxviruses (in words): HCMV
[2] = test system: Vaccinia virus Lederle strain; format: cell-based
[3] = biological target: hypoxanthine-guanine-xanthine phosphoribosyltransferase (HGXPRT); conditions: read-out: Ki, HGXPRT; Plasmodium falciparum enzyme; cited from earlier work

## Nc1ccn(C[C@@H](CO)OCP(=O)(O)O)c(=O)n1.O.O [Cidofovir, reference compound]
[1]
  Selectivity index (ratio CC50:EC50), HCMV: 195–282
  Selectivity index (ratio CC50:EC50), HSV: 322–363
  Selectivity index (ratio CC50:EC50), VZV: 880–2540

## CC(CP(=O)(O)O)OCCn1cnc2c(N)ncnc21 (centres unmarked) [Compound 9a, 9-[2-(1-Phosphonopropan-2-yloxy)ethyl]adenine]
[1]
  Selectivity index (ratio CC50:EC50), HCMV: 14–15
  Selectivity index (ratio CC50:EC50), HSV: 6–10
  Selectivity index (ratio CC50:EC50), VZV: 120–190
[1]; read-out: EC50 values against different human herpesviruses (range)
  EC50: 70 to 2300 nM
[2]
  Selectivity index (ratio CC50:EC50), vaccinia virus: < 1

## Nc1ncnc2c1ncn2CCOC(COCc1ccccc1)CP(=O)(O)O (centres unmarked) [Compound 9d, 9-[2-(3-Benzyloxy-1-phosphonopropan-2-yloxy)ethyl]adenine]
[1]
  Activity against herpes- and poxviruses (in words): inactive

## Nc1ncnc2c1ncn2CCOC(CO)CP(=O)(O)O (centres unmarked) [Compound 9e, 9-[2-(3-Hydroxy-1-phosphonopropan-2-yloxy)ethyl]adenine]
[1]
  Activity against herpes- and poxviruses (in words): inactive; also recorded: annihilated the anti-DNA virus activity

## CC(CP(=O)(O)O)OCCn1cnc2c(N)nc(N)nc21 (centres unmarked) [Compound 14, 9-[2-(1-Phosphonopropan-2-yloxy)ethyl]diaminopurine]
[1]
  Activity against herpes- and poxviruses (in words): inactive

## Cc1cn(CCOC(CO)CP(=O)(O)O)c(=O)[nH]c1=O (centres unmarked) [Compound 15e, 9-[2-(3-Hydroxy-1-phosphonopropan-2-yloxy)ethyl]thymine]
[1]
  Activity against herpes- and poxviruses (in words): inactive

## Nc1nc2c(ncn2CCOCCP(=O)(O)O)c(=O)[nH]1 [PEEG]
[3]
  Ki: 100 nM

## O=c1[nH]cnc2c1ncn2CCOCCP(=O)(O)O [PEEHx]
[3]
  Ki: 300 nM
